From patent US12421252B2, “Spiro (isobenzofuranazetidine) compounds for the treatment of autoimmune disease” (Hoffmann-La Roche Inc., priority 2020, dated 2025)
pIC50: −log10 of the molar value.

Columns and labels:
human TLR8 = molecular target: T1, human TLR8 (Homo sapiens, UniProt Q9NR97); assay: HEK293-Blue-hTLR-8 cells assay; type: cell-based; settings: HEK293-Blue-hTLR8 cells, R848 stimulation, 20 hrs, SEAP reporter; read-out: HEK/hTLR8 IC50
T1 sequence (Q9NR97 27-1041): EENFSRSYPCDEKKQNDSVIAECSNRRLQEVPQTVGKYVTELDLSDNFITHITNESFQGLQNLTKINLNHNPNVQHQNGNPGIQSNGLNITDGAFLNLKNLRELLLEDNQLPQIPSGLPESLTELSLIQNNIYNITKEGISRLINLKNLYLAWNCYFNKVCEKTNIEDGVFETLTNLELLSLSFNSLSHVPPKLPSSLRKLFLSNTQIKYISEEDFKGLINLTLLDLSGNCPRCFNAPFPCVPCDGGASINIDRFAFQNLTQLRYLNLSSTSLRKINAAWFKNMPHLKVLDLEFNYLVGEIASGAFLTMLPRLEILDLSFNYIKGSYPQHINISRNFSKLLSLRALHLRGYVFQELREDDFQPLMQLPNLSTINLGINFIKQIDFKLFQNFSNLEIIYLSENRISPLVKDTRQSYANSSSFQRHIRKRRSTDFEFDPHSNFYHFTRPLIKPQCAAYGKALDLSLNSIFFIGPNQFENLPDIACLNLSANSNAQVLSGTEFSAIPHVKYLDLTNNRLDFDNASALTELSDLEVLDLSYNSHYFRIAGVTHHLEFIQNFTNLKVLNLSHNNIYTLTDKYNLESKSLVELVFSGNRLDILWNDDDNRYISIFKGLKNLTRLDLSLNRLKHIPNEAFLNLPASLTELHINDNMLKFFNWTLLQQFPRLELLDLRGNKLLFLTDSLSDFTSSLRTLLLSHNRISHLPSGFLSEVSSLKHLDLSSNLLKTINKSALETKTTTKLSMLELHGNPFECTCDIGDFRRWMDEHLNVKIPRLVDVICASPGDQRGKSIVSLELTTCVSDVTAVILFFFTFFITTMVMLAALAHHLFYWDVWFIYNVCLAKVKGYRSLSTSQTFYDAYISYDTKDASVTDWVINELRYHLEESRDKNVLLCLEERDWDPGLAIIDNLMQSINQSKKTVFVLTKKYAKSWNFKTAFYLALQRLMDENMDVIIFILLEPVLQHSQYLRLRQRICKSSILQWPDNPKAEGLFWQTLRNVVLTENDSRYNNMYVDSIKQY
Text: HEK293-Blue-hTLR-8 cells assay:
A stable HEK293-Blue-hTLR-8 cell line was purchased from InvivoGen (Cat. #: hkb-htlr8, San Diego, California, USA). These cells were originally designed for studying the stimulation of human TLR8 by monitoring the activation of NF-κB. A SEAP (secreted embryonic alkaline phosphatase) reporter gene was placed under the control of the IFN-β minimal promoter fused to five NF-κB and AP-1-binding sites. The SEAP was induced by activating NF-κB and AP-1 via stimulating HEK-Blue hTLR8 cells with TLR8 ligands. Therefore the reporter expression was declined by TLR8 antagonist under the stimulation of a ligand, such as R848, for incubation of 20 hrs. The cell culture supernatant SEAP reporter activity was determined using QUANTI-Blue™kit (Cat. #: rep-qb1, Invivogen, San Diego, Ca, USA) at a wavelength of 640 nm, a detection medium that turns purple or blue in the presence of alkaline phosphatase.
HEK293-Blue-hTLR8 cells were incubated at a density of 250,000˜450,000 cells/mL in a volume of 170 μL in a 96-well plate in Dulbecco's Modified Eagle's medium (DMEM) containing 4.5 g/L glucose, 50 U/mL penicillin, […], […], 2 mM L-glutamine, 10% (v/v) heat-inactivated fetal bovine serum with addition of 20 μL test compound in a serial dilution in the presence of final DMSO at 1% and 10 μL of 60 uM R848 in above DMEM, perform incubation under 37° C. in a CO2 incubator for 20 hrs. Then 20 μL of the supernatant from each well was incubated with 180 μL Quanti-blue substrate solution at 37° C. for 2 hrs and the absorbance was read at 620-655 nm using a spectrophotometer. The signaling pathway that TLR8 activation leads to downstream NF-κB activation has been widely accepted, and therefore similar reporter assay was modified for evaluating TLR8 antagonist.

CYP2D6 = molecular target: T2, CYP2D6 (Homo sapiens, UniProt P10635); assay: CYP inhibition assay in human liver microsome, CYP2D6; type: in vitro ADME; settings: percentage inhibition, substrate Dextromethorphan 5 μM, <0: not or weak inhibitor
T2 construct: tissue BD-Gentest 452117; host or cells: human liver microsomes
Method: (§1) This is a high throughput screening assay used for assessment of reversible inhibition of CYP2C9, CYP2D6, and CYP3A4 activity of test compounds in human liver microsome (HLM) in early discovery stage.
(§2) Procedure 10 mM DMSO stock solutions of test compounds were diluted in DMSO to generate 2 mM intermediate stock solution. 250 nL of intermediate stock solution were transferred in duplicate into 3 separate 384 well microtitre plates (assay-ready plates). A mixture of HLM and each substrate was made up. 45 μL of HLM substrate mix was then transferred to each well of an assay ready plate and mixed. The negative (solvent) and positive controls (standard inhibitor for each CYP) were included in each assay ready plate. The assay ready plate was warmed to 37° C. in an incubator over 10 minutes. 5 μL pre-warmed NADPH regenerating system was added to each incubation well to start the reaction. Final incubation volume was 50 μL. The assay plate then was placed back in the 37° C. incubator. After incubation (10 minutes for CYP2D6) for 5 minutes, incubates were quenched by addition of 50 μL 100% acetonitrile containing internal standards (400 ng/mL 13C6-4′-OH-Diclofenac, 20 ng/mL D3-Dextrorphan and 20 ng/mL D4-1′OH-Midazolam). The supernatants were collected for RapidFire/MS/MS analysis.
(§3) RapidFire online solid phase extraction/sample injection system (Agilent) coupled with API4000 triple quadrupole mass spectrometer (AB Sciex) were used for sample analysis. The mobile phase composed of acetonitrile and water supplemented with 0.1% formic acid. A C4 solid phase extraction cartridge is used for sample separation. MS detection is achieved in positive ion MRM mode.
(§4) Data analysis Peak areas for substrate, metabolite and internal standard are determined using the RapidFire integrator software (version 3.6.12009.12296). Peak area ratios (PAR) of metabolite and internal standard (stable-labelled metabolite) are then calculated. The measurement window for each experiment is then defined: PAR (0% activity)=average PAR for all incubations containing concentrated inhibitor; Par (100% activity)=average PAR for all incubations containing no inhibitor (DMSO controls); % Activity (test inhibitor)=[PAR (test inhibitor)-PAR (0% activity)]/[PAR (100% activity)-PAR (0% activity)]; % Inhibition (test inhibitor)=100-% Activity (test inhibitor).

CYP2C9 = molecular target: T3, CYP2C9 (Homo sapiens, UniProt P11712); assay: CYP inhibition assay in human liver microsome, CYP2C9; type: in vitro ADME; settings: percentage inhibition, substrate Diclofenac 5 μM, <0: not or weak inhibitor
T3 construct: tissue BD-Gentest 452117; host or cells: human liver microsomes
Method: as §1, §2, §3, §4

T2 sequence (P10635 whole entry): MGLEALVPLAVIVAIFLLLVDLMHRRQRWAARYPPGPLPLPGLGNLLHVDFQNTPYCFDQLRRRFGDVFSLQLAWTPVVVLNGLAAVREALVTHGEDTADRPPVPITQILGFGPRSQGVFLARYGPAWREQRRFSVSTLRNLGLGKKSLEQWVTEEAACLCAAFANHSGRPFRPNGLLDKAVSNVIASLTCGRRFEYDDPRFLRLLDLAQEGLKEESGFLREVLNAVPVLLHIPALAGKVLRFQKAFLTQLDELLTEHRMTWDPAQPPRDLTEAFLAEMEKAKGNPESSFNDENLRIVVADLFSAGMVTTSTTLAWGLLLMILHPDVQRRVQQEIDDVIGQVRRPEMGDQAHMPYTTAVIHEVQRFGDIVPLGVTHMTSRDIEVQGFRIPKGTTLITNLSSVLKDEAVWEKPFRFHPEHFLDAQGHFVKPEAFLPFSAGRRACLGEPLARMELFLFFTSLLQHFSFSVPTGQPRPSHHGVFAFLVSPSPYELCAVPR
T3 sequence (P11712 whole entry): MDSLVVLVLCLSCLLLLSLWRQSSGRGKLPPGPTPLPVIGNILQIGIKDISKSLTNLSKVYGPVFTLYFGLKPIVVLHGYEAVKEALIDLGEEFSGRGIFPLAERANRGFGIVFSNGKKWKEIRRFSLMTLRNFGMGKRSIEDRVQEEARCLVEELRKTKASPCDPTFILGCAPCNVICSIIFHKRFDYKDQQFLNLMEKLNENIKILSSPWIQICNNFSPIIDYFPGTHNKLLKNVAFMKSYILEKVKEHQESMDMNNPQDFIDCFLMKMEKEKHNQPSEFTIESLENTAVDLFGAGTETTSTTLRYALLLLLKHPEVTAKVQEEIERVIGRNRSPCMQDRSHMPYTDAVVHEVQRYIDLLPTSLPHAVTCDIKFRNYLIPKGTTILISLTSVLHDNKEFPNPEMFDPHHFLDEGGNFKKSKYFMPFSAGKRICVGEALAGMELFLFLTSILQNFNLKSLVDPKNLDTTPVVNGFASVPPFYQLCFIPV

Row | SMILES | pIC50 (human TLR8) | CYP (%) 2D6 (CYP2D6) [%] | CYP (%) 2C9 (CYP2C9) [%]
1 | [2H]c1ccc2c(N3C[C@H](CN4CC5(C4)OCc4cc(N6CC(C)(N)C6)cnc45)O[C@H](C)C3)ccc(C#N)c2n1 [Example 21, 5-[(2S,6R)-2-[[3-(3-amino-3-methyl-azetidin-1-yl)spiro[5H-furo[3,4-b]pyridine-7,3′-azetidine]-1′-yl]methyl]-6-methyl-morpholin-4-yl]-2-deuterio-quinoline-8-carbonitrile] | 7.77 | 5 | 4.5
2 | [2H]c1ccc2c(N3C[C@H](CN4CC5(C4)OCc4cc(N6C[C@H]7NCCO[C@@H]7C6)ccc45)O[C@H](C)C3)ccc(C#N)c2n1 [Example 17, 5-[(2S,6R)-2-[[6-[(4aR,7aR)-3,4,4a,5,7,7a-hexahydro-2H-pyrrolo[3,4-b][1,4]oxazin-6-yl]spiro[1H-isobenzofuran-3,3′-azetidine]-1′-yl]methyl]-6-methyl-morpholin-4-yl]-2-deuterio-quinoline-8-carbonitrile] | 8.05 | 18.5 | 3.5
3 | [2H]c1ccc2c(N3C[C@H](CN4CC5(C4)OCc4cc(N6CC(N)C6)cnc45)O[C@H](C)C3)ccc(C#N)c2n1 [Example 20, 5-[(2S,6R)-2-[[3-(3-aminoazetidin-1-yl)spiro[5H-furo[3,4-b]pyridine-7,3′-azetidine]-1′-yl]methyl]-6-methyl-morpholin-4-yl]-2-deuterio-quinoline-8-carbonitrile] | 7.52 | 13 | 13.5
4 | C[C@@H]1CN(c2ccc(C#N)n3ncc(F)c23)C[C@H](CN2CC3(C2)OCc2cc(N4CC(C)(N)C4)ncc23)O1 [Example 24, 4-[(2S,6R)-2-[[6-(3-amino-3-methyl-azetidin-1-yl)spiro[1H-furo[3,4-c]pyridine-3,3′-azetidine]-1′-yl]methyl]-6-methyl-morpholin-4-yl]-3-fluoro-pyrazolo[1,5-a]pyridine-7-carbonitrile] | 7.23 | 3.5 | 21
5 | C[C@@H]1CN(c2ccc(C#N)n3nccc23)C[C@H](CN2CC3(C2)OCc2cc(N4CC5(CNCCO5)C4)ccc23)O1 [Example 7, 4-[(2R,6S)-2-methyl-6-[[6-(5-oxa-2,8-diazaspiro[3.5]nonan-2-yl)spiro[1H-isobenzofuran-3,3′-azetidine]-1′-yl]methyl]morpholin-4-yl]pyrazolo[1,5-a]pyridine-7-carbonitrile] | 7.24 | −2 | 0
6 | [2H]c1ccc2c(N3C[C@H](CN4CC5(C4)OCc4cc(N6C[C@@H](N)[C@H](OC)C6)cnc45)O[C@H](C)C3)ccc(C#N)c2n1 [Example 31, 5-[(2S,6R)-2-[[3-[(3R,4R)-3-amino-4-methoxy-pyrrolidin-1-yl]spiro[5H-furo[3,4-b]pyridine-7,3′-azetidine]-1′-yl]methyl]-6-methyl-morpholin-4-yl]-2-deuterio-quinoline-8-carbonitrile] | 7.52 |  | 
7 | C[C@@H]1CN(c2ccc(C#N)n3ncc(F)c23)C[C@H](CN2CC3(C2)OCc2cc(N4CC5(CN(C)C5)C4)cnc23)O1 [Example 22, 3-fluoro-4-[(2R,6S)-2-methyl-6-[[3-(6-methyl-2,6-diazaspiro[3.3]heptan-2-yl)spiro[5H-furo[3,4-b]pyridine-7,3′-azetidine]-1′-yl]methyl]morpholin-4-yl]pyrazolo[1,5-a]pyridine-7-carbonitrile] | 7.19 |  | 
8 | C[C@@H]1CN(c2ccc(C#N)n3ncc(F)c23)C[C@H](CN2CC3(C2)OCc2cc(N4CCNCC4)ccc23)O1 [Example 6, 3-fluoro-4-[(2R,6S)-2-methyl-6-[(6-piperazin-1-ylspiro[1H-isobenzofuran-3,3′-azetidine]-1′-yl)methyl]morpholin-4-yl]pyrazolo[1,5-a]pyridine-7-carbonitrile] | 7.62 |  | 
